Measurements published in patent US6458813B1, “Substituted pyridine compounds and methods of use” (Amgen Inc., priority 1997, dated 2002).

What follows are compounds tested on production of tumor necrosis factor (TNF) by monocytes activated with bacterial lipopolysaccharide (LPS) (assay: Lipopolysaccharide-activated monocyte TNF production assay). Details: Homo sapiens, adherent monocytes from PBMCs, 60 min with compound, then LPS 4 hrs, TNF in supernatants by ELISA, read-out: IC50 (concentration of test compounds causing a 50% reduction in TNF production).
Format: cell-based
Description: Lipopolysaccharide-activated monocyte TNF production assay
Test compounds were evaluated in vitro for the ability to inhibit the production of tumor necrosis factor (TNF) by monocytes activated with bacterial lipopolysaccharide (LPS). Fresh residual source leukocytes (a byproduct of plateletpheresis) were obtained from a local blood bank, and peripheral blood mononuclear cells (PBMCs) were isolated by density gradient centrifugation on Ficol-Paque Plus (Pharmacia). PBMCs were suspended at 2×10^6/ml in DMEM supplemented to contain 2% FCS, 10 mM, 0.3 mg/ml […], 100 U/ml penicillin G and […] streptomycin sulfate (complete media). Cells were plated into Falcon flat bottom, 96 well culture plates (200 μl/well) and cultured overnight at 37° C. and 6% CO2. Non-adherent cells were removed by washing with 200 μl/well of fresh medium. Wells containing adherent cells (˜70% monocytes) were replenished with 100 μl of fresh medium.
Preparation of test compound stock solutions
Test compounds were dissolved in DMSO. Compound stock solutions were prepared to an initial concentration of […]. Stocks were diluted initially to 20-200 μM in complete media. Nine two-fold serial dilutions of each compound were then prepared in complete medium.
Treatment of cells with test compounds and activation of TNF production with lipopolysaccharide
One hundred microliters of each test compound dilution were added to microtiter wells containing adherent monocytes and 100 μl complete medium. Monocytes were cultured with test compounds for 60 min at which time 25 μl of complete medium containing 30 ng/ml lipopolysaccharide from E. coli K532 were added to each well. Cells were cultured an additional 4 hrs. Culture supernatants were then removed and TNF presence in the supernatants was quantified using an ELISA.
Flat bottom, 96 well Corning High Binding ELISA plates were coated overnight (4° C.) with 150 μL/well of 3 μg/ml murine anti-human TNF-α MAb (R&D Systems #MAB210). Wells were then blocked for 1 hr at room temperature with 200 μL/well of CaCl2-free ELISA buffer supplemented to contain 20 mg/ml BSA (standard ELISA buffer: […], 150 mM NaCl, 2 mM CaCl2, 0.15 mM thimerosal, pH 7.4). Plates were washed and replenished with 100 μl of test supernatants (diluted 1:3) or standards. Standards consisted of eleven 1.5-fold serial dilutions from a stock of 1 ng/ml recombinant human TNF (R&D Systems). Plates were incubated at room temperature for 1 hr on orbital shaker (300 rpm), washed and replenished with 100 μl/well of 0.5 μg/ml goat anti-human TNF-α (R&D systems #AB-210-NA) biotinylated at a 4:1 ratio. Plates were incubated for 40 min, washed and replenished with 100 μl/well of alkaline phosphatase-conjugated streptavidin (Jackson ImmunoResearch #016-050-084) at 0.02 μg/ml. Plates were incubated 30 min, washed and replenished with 200 μl/well of 1 mg/ml of p-nitrophenyl phosphate. After 30 min, plates were read at 405 nm on a Vmax plate reader.
Standard curve data were fit to a second order polynomial and unknown TNF-α concentrations determined from their OD by solving this equation for concentration. TNF concentrations were then plotted vs. test compound concentration using a second order polynomial. This equation was then used to calculate the concentration of test compounds causing a 50% reduction in TNF production.
`Cc1cccc(C)c1C(=O)Nc1ccc(NC2CCCCC2)nc1` [2-cyclohexylamino-5-(2,6-dimethylphenylcarbonylamino) pyridine] gave an IC50 of under 15 µM.
For `CC1CCCCC1Nc1ccc(NC(=O)c2c(Cl)cccc2Cl)cn1` (centres unmarked) [2-(2-methylcyclohexylamino)-5-(2,6-dichlorophenylcarbonylamino)pyridine], the IC50 was under 15 µM.
In the case of `Cc1cc(Cl)ccc1Oc1ccc(NC(=O)c2c(C)cccc2C)cn1` [2-(2-methyl-4-chlorophenoxy)-5-(2,6-dimethylphenylcarbonylamino)pyridine], the IC50 is reported as under 15 µM.
In the case of `Cc1ncccc1Oc1ccc(NC(=O)c2c(Cl)cccc2Cl)cn1` [2-(2-methyl-3-pyridyloxy)-5-(2,6-dichlorophenylcarbonylamino)pyridine], the IC50 is reported as under 15 µM.
In the case of `O=C(Nc1ccc(OC2CCCCC2)nc1)c1ccccc1Cl` [2-cyclohexyloxy-5-(2-chlorophenylcarbonylamino)pyridine], the IC50 is reported as under 15 µM.
Work on `Cc1cc(Cl)ccc1Nc1ccc(NC(=O)c2ccccc2C)cn1` [2-(2-methyl-4-chlorophenylamino)-5-(2-methylphenylcarbonylamino)pyridine] yielded an IC50 of under 15 µM.
`O=C(Nc1ccc(Oc2cccc3ccccc23)nc1)c1c(Cl)cccc1Cl` [2-(1-naphthyloxy)-5-(2,6-dichlorophenylcarbonylamino) pyridine] gave an IC50 of under 15 µM.
Compound `Cc1ccc(Oc2ccc(NC(=O)c3ccccc3C)cn2)c(C)c1` [2-(2,4-dimethylphenoxy)-5-(2-methylphenylcarbonylamino) pyridine] has an IC50 of under 15 µM.
With `Cc1ccccc1Nc1ccc(NC(=O)c2c(C)cccc2C)cn1` [2-(2-methylphenylamino)-5-(2,6-dimethylphenylcarbonylamino)pyridine] the IC50 was under 15 µM.
In the case of `Cc1ccccc1C(=O)Nc1ccc(NC2CCCCC2C)nc1` (centres unmarked) [2-(2-methylcyclohexylamino)-5-(2-methylphenylcarbonylamino)pyridine], the IC50 is reported as under 15 µM.
Work on `Cc1ccccc1C(=O)Nc1ccc(OC2CCCCC2)nc1` [2-cyclohexyloxy-5-(2-methylphenylcarbonylamino)pyridine] yielded an IC50 of under 15 µM.
`Cc1cc(Cl)ccc1Oc1ccc(NC(=O)c2c(C)noc2C)cn1` [2-(2-methyl-4-chlorophenoxy)-5-((3,5-dimethyl-4-isoxazolyl)carbonylamino)pyridine] gave an IC50 of under 15 µM.
Compound `Cc1cccc(C)c1C(=O)Nc1ccc(Oc2ccc(Cl)cc2)nc1` [2-(4-chlorophenoxy)-5-(2,6-dimethylphenylcarbonylamino) pyridine] has an IC50 of under 15 µM.
`Cc1ccc(Oc2ccc(NC(=O)c3c(C)cccc3C)cn2)c(C)c1` [2-(2,4-dimethylphenoxy)-5-(2,6-dimethylphenylcarbonylamino)pyridine] showed an IC50 of under 15 µM.
For `Cc1cccc(C)c1C(=O)Nc1ccc(OC2CCCCC2)nc1` [2-cyclohexyloxy-5-(2,6-dimethylphenylcarbonylamino) pyridine], the IC50 was under 15 µM.
In the case of `O=C(Nc1ccc(OC2CCCCC2)nc1)c1c(Cl)cccc1Cl` [2-cyclohexyloxy-5-(2,6-dichlorophenylcarbonylamino) pyridine], the IC50 is reported as under 15 µM.
`Cc1cc(F)ccc1Oc1ccc(NC(=O)c2c(Cl)cccc2Cl)cn1` [2-(2-methyl-4-fluorophenoxy)-5-(2,6-dichlorophenylcarbonylamino)pyridine] gave an IC50 of under 15 µM.
`Cc1cc(Cl)ccc1Oc1ccc(NC(=O)c2ccccc2Cl)cn1` [2-(2-methyl-4-chlorophenoxy)-5-(2-chlorophenylcarbonylamino)pyridine] was tested, and the IC50 was under 15 µM.
Work on `Cc1ccccc1NC(=O)c1ccc(Nc2ccc(Cl)cc2C)nc1` [2-(2-methyl-4-chlorophenylamino)-5-(2-methylphenylaminocarbonyl)pyridine] yielded an IC50 of under 15 µM.
`O=C(Nc1ccc(NC2CCCCC2)nc1)c1c(Cl)cccc1Cl` [2-cyclohexylamino-5-(2,6-dichlorophenylcarbonylamino) pyridine] gave an IC50 of under 15 µM.
Compound `Cc1cc(F)ccc1Oc1ccc(NC(=O)c2ccccc2F)cn1` [2-(2-methyl-4-fluorophenoxy)-5-(2-fluorophenylcarbonylamino)pyridine] has an IC50 of under 15 µM.
Work on `Cc1cc(F)ccc1Oc1ccc(NC(=O)c2ccccc2C)cn1` [2-(2-methyl-4-fluorophenoxy)-5-(2-methylphenylcarbonylamino)pyridine] yielded an IC50 of under 15 µM.
`Cc1cc(Cl)ccc1Oc1ccc(NC(=O)c2c(Cl)cccc2Cl)cn1` [2-(2-methyl-4-chlorophenoxy)-5-(2,6-dichlorophenylcarbonylamino)pyridine] gave an IC50 of under 15 µM.
Work on `Cc1cc(F)ccc1Oc1ccc(NC(=O)c2c(C)cccc2C)cn1` [2-(2-methyl-4-fluorophenoxy)-5-(2,6-dimethylphenylcarbonylamino)pyridine] yielded an IC50 of under 15 µM.
With `Cc1ccccc1Nc1ccc(NC(=O)c2ccccc2C)cn1` [2-(2-methylphenylamino)-5-(2-methylphenylcarbonylamino)pyridine] the IC50 was under 15 µM.

The compounds below were run on Cyclooxygenase enzyme (COX-1 and COX-2) (assay: Cyclooxygenase Enzyme Activity Assay (isoform not stated for the result)). Details: COX-1 (THP-1) / COX-2 (HOSC) cell assays, PGE2 ELISA.
Format: cell-based, human
Description: Cyclooxygenase Enzyme Activity Assay
The human monocytic leukemia cell line, THP-1, differentiated by exposure to phorbol esters expresses only COX-1; the human osteosarcoma cell line 143B expresses predominantly COX-2. THP-1 cells are routinely cultured in RPMI complete media supplemented with 10% FBS and human osteosarcoma cells (HOSC) are cultured in minimal essential media supplemented with 10% fetal bovine serum (MEM-10%FBS); all cell incubations are at 37° C. in a humidified environment containing 5% CO2.
In preparation for the COX-1 assay, THP-1 cells are grown to confluency, split 1:3 into RPMI containing 2% FBS and […] phorbol 12-myristate 13-acetate (TPA), and incubated for 48 hours on a shaker to prevent attachment. […] Arachidonic acid is added to a final concentration of […], the cells incubated for 20 minutes at 37° C., and enzyme activity determined as described below. […]
After incubation with arachidonic acid, the reactions are stopped by the addition of 1 N HCl, followed by neutralization with 1 N NaOH and centrifugation to pellet cell debris. Cyclooxygenase enzyme activity in both HOSC and THP-1 cell supernatants is determined by measuring the concentration of PGE2 using a commercially available ELISA (Neogen #404110). […]
For `Cc1ccc(Nc2ccc(NC(=O)c3c(Cl)cccc3Cl)cn2)c(C)c1` [2-(2,4-dimethylphenylamino)-5-(2,6-dichlorophenylcarbonylamino)pyridine], the IC50 was at most 10 µM.
